Source: publication PMC7849180 (Frontiers in Pharmacology, 2020)
Where two headings read alike, the source gives them in different places.

Tests used:
[1] = 28-day oral gavage toxicity; format: in vivo, Wistar rats; details: for drug exposure: 24.4 mg/kg
Method: Suzhou Zelgen Biopharmaceuticals Co., Ltd. Jaktinib Hydrochloride Tablets Chemical Drug Class 1 New Drug […]
active ingredient ZG0163). The control group contained 36 Wistar rats (6 rats were used for the toxicokinetic test) and each group of ZG0128 contained 54 rats (24 rats in each group were used for the toxicokinetic test), with half males and half females. The rats in each group were given the control substance (0.5% CMC-Na solution) or the corresponding concentrations of ZG0128 in a 10 mL/kg volume by oral gavage once a […]
The day of the first dose […]
is defined as day 1 of the dosing period, while the day of anatomy after the last dose is defined as day 1 of the recovery period. During the dosing period and the recovery […]
the body weight and food intake of the rats were measured twice a week during the […]
recovery periods, respectively. In the 219.6 mg/kg group, 12 (3 females, 9 males) and […]
and recovery periods, respectively. The rats in each group were anesthetized to collect blood samples for hematology and blood biochemistry tests. After the rats were […]
histopathological examination of tissue samples were performed. For the rats in […]
ZG0128 groups used for toxicokinetic test, their blood samples were collected before the first dose and last dose as well as 0.5, 1, 2, 3, 4, 6, 10, and 24 h after the first dose and last dose. For the rats in the control group, their blood samples were collected before the first dose and last dose and 3 h after the first dose and last dose, respectively.
LC-MS/MS was used to measure the concentrations of the original drug ZG0163 and its amide hydrolysis metabolite ZG0245 in the blood samples collected at various time […]
tissues, spleen, thymus, and bone marrow), digestive system (gastrointestinal tract, pancreas, and submandibular gland), reproduction system, kidney, and bones. The drug caused abnormal indicators related to liver, renal, and pancreatic functions, as well as decreased lymphocytes and platelets. At the dose of 73.2 mg/kg, some of the above lesions could be observed, but the severity of the lesions was mild. After drug discontinuation, the lesions in the submandibular gland, testis, and epididymis were still visible in 73.2 and 219.6 mg/kg groups, and the severity of the lesions was not […]
disappeared after drug discontinuation.
In the dose range of 24.4 to 219.6 mg/kg, the exposure to ZG0128 and its metabolite ZG0245 in female and male rats increased in proportion to the dose, and no significant gender difference was observed. After 28 days of consecutive administration, […]
both female and male rats of each dose group.
After the Wistar rats were given 24.4, 73.2, and 219.6 mg/kg of ZG0128 by oral […]
mg/kg. At this dose, the drug exposure dose in female rats on the first day of dosing […]
10124 h•ng/mL in male rats. On day 28 of dosing, the drug exposure dose in female

[2] = Excerpt: Chemical Drug Class 1 New Drug
A Toxicity Test in Beagle Dogs Administered ZG0128 by Oral Gavage for 28 […]
The study consisted of 4 groups, including the control group and dose groups of […]
active ingredient ZG0163). Each group contained 10 dogs, with 5 male dogs and 5 female dogs. The dogs in each group were orally administered with control (empty capsule) or the corresponding doses of ZG0128 once a day for 28 consecutive days, followed by 28 days for recovery after drug discontinuation. The day of the first dose is defined as day 1 of the dosing period. During the dosing period and the recovery period, the general conditions of the dogs in different groups were observed every day.
The body weight and food intake of the dogs were measured twice a week during the dosing period and once a week during the recovery period, respectively. At 2-3 h after the dosing on day 14, and 2-3 h after the last dose as well as on the last day of the recovery period. The lead II electrocardiogram, blood pressure and body temperature (anal temperature) were measured. One ophthalmic examination and routine urinalysis were arranged at the end of dosing and recovery periods, respectively. Hematology and blood biochemistry tests were performed on day 15 and the end of the dosing and recovery periods, respectively.
In all other groups, 6 and 4 dogs
(male:female=1:1) were dissected at the end of dosing and recovery periods, respectively. After the dogs were euthanized, bone marrow smear, gross anatomy, organ weight measurement and histopathological examination of tissue samples were performed. Blood samples were collected from dogs before the first/last dose and 0.5, 1, 2, 4, 6, 10, 24 h after drug administration in ZG0128 dose groups. Blood samples were collected before the first/last dose and 2 h after the first/last dose, respectively.
LC-MS/MS was used to measure the concentration of the original drug ZG0163 and […]
the amide hydrolysis metabolite ZG0245 in blood samples at various time points and to calculate AUClast, Cmax, Tmax, and other toxicokinetic parameters.

[3] = 26-week oral gavage toxicity; format: in vivo, Wistar rats
Method: Suzhou Zelgen Biopharmaceuticals Co., Ltd. Jaktinib Hydrochloride Tablets Chemical Drug Class 1 New Drug
Wistar rats were given 4, 12, or 30 mg/kg of ZG0128 via oral gavage once a day for 26 consecutive weeks, followed by 28 days for recovery after drug discontinuation.
Only the 30 mg/kg dose caused a slight decrease in lymphocyte counts, which might be related to the pharmacological effects of ZG0128. The lymphocyte counts were back to normal by the end of recovery period. No other obvious abnormalities related to the […]
conditions, body weight, ophthalmologic examination, blood biochemistry, blood coagulation, routine urinalysis, gross anatomy and histopathological examination during the trial. The no observed adverse effect level (NOAEL) was 30 mg/kg. At this dose, the drug exposure was 52697 h•ng/mL (based on the active ingredient ZG0163) in female rats and 67133 h•ng/mL in male rats on the first day of dosing, and on day 182 of dosing the drug exposure was 75339 h•ng/mL (based on the active ingredient ZG0163) in female rats and 45024 h•ng/mL in male rats. […]

[4] = PK, 7-day intragastric dosing; format: in vivo, rats; details: for AUC0-t / AUC0-∞ / Cmax / Tmax / t1/2: 30.5 mg/kg (multiple dose)
Method: After 7 consecutive days of continuous intragastric administration (30.5 mg/kg once a day) of ZG0128 in rats, the plasma concentration reached a steady state on day […]
values obtained after the single-dose administration, respectively. The Cmax and AUC0-t of the metabolite ZG0245 were 1.19 and 1.52 times the values obtained after the single-dose administration, respectively. […]
consecutive days of administration, there was no significant accumulation of ZG0163 and the metabolite ZG0245 in rats. The pharmacokinetic parameters obtained after […]
Table 12. Pharmacokinetic parameters of ZG0163 in rats given different doses of ZG0128 via oral gavage (n = 6, male:female=1:1).
Dosage Gender Tmax Cmax AUC0-t AUC0-∞ MRT t1/2

Jaktinib
drug exposure ([1]; female rats, day 28): 51893 ± 20625 ng·h/mL
drug exposure ([1]; female rats, first day): 60887 ± 21040 ng·h/mL
drug exposure ([1]; male rats, day 28): 46522 ± 17149 ng·h/mL
drug exposure ([1]; male rats, first day): 50799 ± 10124 ng·h/mL
NOAEL ([2]; 28 days): 18.3 mg/kg
NOAEL ([2]; Beagle dogs, oral, 28 days): 18.3 mg/kg/day
NOAEL ([3]; 26 weeks): 30 mg/kg
NOAEL ([3]; Wistar rats, oral, 26 weeks): 30 mg/kg/day
AUC0-t ([4]; Female): 67600 ± 27600 ng·h/mL
AUC0-∞ ([4]; Female): 67800 ± 27800 ng·h/mL
Cmax ([4]; Female): 11000 ± 4220 ng/mL
Tmax ([4]; Female): 1.0 h
t1/2 ([4]; Female): 1.81 ± 1.55 h
AUC0-t ([4]; Male): 35700 ± 13500 ng·h/mL
AUC0-∞ ([4]; Male): 36000 ± 13800 ng·h/mL
Cmax ([4]; Male): 6340 ± 1230 ng/mL
Tmax ([4]; Male): 1.0 (1.0-2.0) h
t1/2 ([4]; Male): 2.15 ± 0.62 h
AUC0-t ([4]; Overall): 51700 ± 26100 ng·h/mL
AUC0-∞ ([4]; Overall): 51900 ± 26200 ng·h/mL
Cmax ([4]; Overall): 8670 ± 3770 ng/mL
Tmax ([4]; Overall): 1.0 (1.0-6.0) h
t1/2 ([4]; Overall): 1.98 ± 1.07 h

Cl.Cl.O.[2H]C1([2H])COCC([2H])([2H])N1c1ccc(Nc2nccc(-c3ccc(C(=O)NCC#N)cc3)n2)cc1 [ZG0128, Jaktinib Dihydrochloride Monohydrate]
highest non-severely toxic dose (HNSTD) ([1]; 28 consecutive days): 24.4 mg/kg
dose causing dying or death ([1]; 28 days): 219.6 mg/kg
NOAEL ([2]; 28 days): 18.3 mg/kg
dose causing death ([2]; 28 days): 195.2 mg/kg
highest non-severely toxic dose (HNSTD) ([2]; dog, in vivo): 61 mg/kg
NOAEL ([3]; rat, in vivo): 30 mg/kg
day on which steady state was reached ([4]; 30.5 mg/kg once a day): 5 days
